{"source": "paper PMC4311969", "about": "(Journal of the American Chemical Society, 2015)", "key": {"[1]": {"target": "T1, yeast orotidine monophosphate decarboxylase (ScOMPDC) (Saccharomyces cerevisiae, UniProt P03962, C155S)", "T1 sequence (P03962 1-267 C155S)": "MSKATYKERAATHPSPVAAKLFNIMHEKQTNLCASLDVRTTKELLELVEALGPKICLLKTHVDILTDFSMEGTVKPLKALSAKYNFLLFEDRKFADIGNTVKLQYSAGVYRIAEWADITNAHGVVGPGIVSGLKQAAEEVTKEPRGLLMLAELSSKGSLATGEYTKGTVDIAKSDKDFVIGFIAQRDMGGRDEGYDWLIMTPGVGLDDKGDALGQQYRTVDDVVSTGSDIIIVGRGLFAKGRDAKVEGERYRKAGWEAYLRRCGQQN", "assay": "Oxydianion activation of ScOMPDC-catalyzed decarboxylation of EO", "format": "biochemical"}, "[2]": {"target": "T1, yeast orotidine monophosphate decarboxylase (ScOMPDC)", "conditions": "cited from earlier work; for intrinsic oxydianion binding energy (ΔG^‡): ScOMPDC-catalyzed decarboxylation of EO"}, "[3]": {"target": "T2, human liver glycerol 3-phosphate dehydrogenase (hlGPDH) (Homo sapiens, UniProt P21695)", "T2 sequence (P21695 1-349)": "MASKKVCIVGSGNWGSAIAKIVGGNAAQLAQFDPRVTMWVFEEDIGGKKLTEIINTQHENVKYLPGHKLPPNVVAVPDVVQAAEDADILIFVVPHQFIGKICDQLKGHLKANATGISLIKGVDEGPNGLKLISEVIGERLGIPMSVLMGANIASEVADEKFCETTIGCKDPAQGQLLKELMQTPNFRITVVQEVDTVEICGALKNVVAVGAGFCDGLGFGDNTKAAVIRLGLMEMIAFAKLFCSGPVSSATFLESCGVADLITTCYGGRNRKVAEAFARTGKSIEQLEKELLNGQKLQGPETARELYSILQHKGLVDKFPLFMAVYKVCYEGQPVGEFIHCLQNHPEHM", "assay": "Oxydianion activation of hlGPDH-catalyzed reduction of GA by NADH", "format": "biochemical", "conditions": "for RT ln(K^‡)X, intrinsic Gibbs dianion binding free energy: hlGPDH-catalyzed reduction of GA"}, "[4]": {"target": "T3, yeast triosephosphate isomerase (ScTIM) (Saccharomyces cerevisiae, UniProt P00942)", "T3 sequence (P00942 1-248)": "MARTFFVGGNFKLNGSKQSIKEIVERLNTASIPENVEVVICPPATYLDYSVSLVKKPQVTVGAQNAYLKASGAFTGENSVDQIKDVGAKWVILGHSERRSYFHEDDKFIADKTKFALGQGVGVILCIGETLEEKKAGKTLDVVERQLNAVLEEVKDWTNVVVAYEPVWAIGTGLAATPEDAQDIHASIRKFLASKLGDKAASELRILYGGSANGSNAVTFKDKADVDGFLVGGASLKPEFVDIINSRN", "assay": "Oxydianion activation of ScTIM-catalyzed reactions of [1-13C]-GA in D2O", "format": "biochemical", "conditions": "for RT ln(K^‡)X, intrinsic Gibbs dianion binding free energy: [1-^13C]-GA in D2O; for RT ln(K^‡)X, intrinsic Gibbs dianion binding free energy / Kd: 25 °C; for Kd: read-out: KX, dissociation constant for release of the oxydianion from ScTIM, 20 mM [1-^13C]-GA in D2O, pD 7.0 (20 mM imidazole), I = 0.1 (NaCl), fit to eq 3"}, "[5]": {"target": "T4, human liver GPDH (hlGPDH) (Homo sapiens, UniProt P21695)", "T4 sequence (P21695 1-349)": "T2 sequence (P21695 1-349)", "format": "biochemical", "conditions": "identical plots at 0.10 or 0.20 mM NADH; printed ≪"}, "ScOMPDC": {"tested_on": "ScOMPDC", "conditions": "cited from earlier work"}, "[6]": {"conditions": "pH 7.5 (10 mM TEA), 25 °C, 0.2 mM NADH, I = 0.12 (NaCl)"}}, "note": "Values joined by “and” are separate entries in the source; they are usually repeats but may differ in a detail not shown here. Equal values may be shown once. Where a name gives a salt, the structure may show the parent alone. Read-outs that look alike come from different tables or passages of the source."}
{"smiles": "O=C(O)c1cc(=O)n([C@@H]2OC[C@@H](O)[C@H]2O)c(=O)[nH]1", "note": "[EO, 1-(β-D-erythrofuranosyl)orotic acid]", "values": [{"measurement": "k′cat, turnover of the complex between enzyme and substrate pieces", "setting": "[1]; EO + HPO3^2–, calculated using published (kcat/Km)E·HPi and Kd (ref 10)", "value": "≈ 160 ^f s^–1"}, {"measurement": "Kd", "setting": "[2]; read-out: Kd of truncated substrate, substrate pieces, EO + HPO3^2–", "value": "100 mM and ~100 mM"}]}
{"smiles": "O=CCO", "note": "[GA, glycolaldehyde]", "values": [{"measurement": "k′cat, turnover of the complex between enzyme and substrate pieces", "setting": "[3]; GA + HPO3^2–, estimated as [(kcat/Km)E·HPi]Kd", "value": 5.5, "unit": "s^–1"}, {"measurement": "kcat, unactivated reduction of GA", "setting": "[3]; no dianion, 0.05 mM hlGPDH, pH 7.5, 25 °C, 0.2 mM NADH, I = 0.12 (NaCl)", "value": "3.1 × 10^–4 s^–1"}, {"measurement": "KGA, unactivated reduction of GA", "setting": "[3]; no dianion, carbonyl form of GA, pH 7.5, 25 °C, 0.2 mM NADH, I = 0.12 (NaCl)", "value": 6.2, "unit": "mM"}, {"measurement": "Kd", "setting": "[3]; read-out: Kd of truncated substrate, substrate pieces, GA + HPO3^2–", "value": 5, "unit": "mM"}]}
{"smiles": "O=[As](O)(O)O", "note": "[HOAsO3^2–]", "values": [{"measurement": "intrinsic oxydianion binding energy (ΔG^‡)", "setting": "[2]", "value": "no activation detected"}]}
{"smiles": "O=P(O)(O)O", "note": "[HOPO3^2–, phosphate]", "values": [{"measurement": "RT ln(K^‡)X, intrinsic Gibbs dianion binding free energy", "setting": "[3]; 25 °C", "value": "–4.9 kcal/mol"}, {"measurement": "(kcat)E·X, first-order rate constant for turnover of the Michaelis complex", "setting": "[3]; [6]", "value": "0.032 ± 0.002", "unit": "s^–1"}, {"measurement": "intrinsic oxydianion binding energy (ΔG^‡)", "setting": "[2]", "value": -12.6, "unit": "kJ/mol"}]}
{"smiles": "O=[PH](O)O", "note": "[HPO3^2–, phosphite dianion]", "values": [{"measurement": "RT ln(K^‡)X, intrinsic Gibbs dianion binding free energy", "setting": "[3]; 25 °C", "value": "–7.5 kcal/mol"}, {"measurement": "RT ln(K^‡)X, intrinsic Gibbs dianion binding free energy", "setting": "[3]; 25 °C, listed as phosphite dianion", "value": "−7.5", "unit": "kcal/mol"}, {"measurement": "(kcat)E·X, first-order rate constant for turnover of the Michaelis complex", "setting": "[3]; [6]", "value": "5.5 ± 0.3", "unit": "s^–1"}, {"measurement": "Kd", "setting": "[3]; read-out: KX, dissociation constant for release of the oxydianion from the binary or ternary enzyme complex, pH 7.5 (10 mM TEA), 25 °C, 0.2 mM NADH, I = 0.12 (NaCl)", "value": "70 ± 4", "unit": "mM"}, {"measurement": "intrinsic dianion binding energy (given without sign)", "setting": "[4]; ScTIM", "value": 26.4, "unit": "kJ/mol"}, {"measurement": "RT ln(K^‡)X, intrinsic Gibbs dianion binding free energy", "setting": "[4]; ScTIM", "value": "–6.3 kcal/mol"}, {"measurement": "RT ln(K^‡)X, intrinsic Gibbs dianion binding free energy", "setting": "[4]; ScTIM, listed as phosphite dianion", "value": "−6.3", "unit": "kcal/mol"}, {"measurement": "ratio of (kcat/Km)E·X/KX to (kcat/Km)E", "setting": "[4]; ScTIM-catalyzed isomerization, substrate pieces", "value": "4.4 × 10^4 M^–1"}, {"measurement": "Kd", "setting": "[4]", "value": "18 ± 3", "unit": "mM"}, {"measurement": "intrinsic dianion binding energy (given without sign)", "setting": "[1]; ScOMPDC", "value": 32.2, "unit": "kJ/mol"}, {"measurement": "ratio of (kcat/Km)E·X/KX to (kcat/Km)E", "setting": "[1]; yeast OMPDC-catalyzed decarboxylation, substrate pieces", "value": "4.4 × 10^5 M^–1"}, {"measurement": "intrinsic oxydianion binding energy (ΔG^‡)", "setting": "[2]", "value": -32.2, "unit": "kJ/mol"}]}
{"smiles": "NC(=O)C1=CN([C@@H]2O[C@H](COP(=O)(O)OP(=O)(O)OC[C@H]3O[C@@H](n4cnc5c(N)ncnc54)[C@H](O)[C@@H]3O)[C@@H](O)[C@H]2O)C=CC1", "note": "[NADH]", "values": [{"measurement": "Km", "setting": "[5]", "value": "< 100", "unit": "µM"}]}
{"smiles": "O=C(O)c1cc(=O)[nH]c(=O)n1[C@@H]1O[C@H](COP(=O)(O)O)[C@@H](O)[C@H]1O", "note": "[OMP, Orotidine 5′-monophosphate]", "values": [{"measurement": "kcat, turnover of whole substrate", "setting": "ScOMPDC", "value": 16, "unit": "s^–1"}]}
{"smiles": "O=S(O)(O)=S", "note": "[S2O3^2–, thiosulfate dianion]", "values": [{"measurement": "(kcat)E·X, first-order rate constant for turnover of the Michaelis complex", "setting": "[3]; [6]", "value": "0.0190 ± 0.002", "unit": "s^–1"}, {"measurement": "Kd", "setting": "[4]", "value": "7 ± 1", "unit": "mM"}, {"measurement": "intrinsic oxydianion binding energy (ΔG^‡)", "setting": "[2]", "value": -19.2, "unit": "kJ/mol"}]}
{"smiles": "O=S(O)O", "note": "[SO3^2–]", "values": [{"measurement": "intrinsic oxydianion binding energy (ΔG^‡)", "setting": "[2]", "value": -34.7, "unit": "kJ/mol"}]}
{"smiles": "O=S(=O)(O)O", "note": "[SO4^2–, sulfate]", "values": [{"measurement": "RT ln(K^‡)X, intrinsic Gibbs dianion binding free energy", "setting": "[3]; 25 °C", "value": "–5.9 kcal/mol"}, {"measurement": "(kcat)E·X, first-order rate constant for turnover of the Michaelis complex", "setting": "[3]; [6]", "value": "0.360 ± 0.040", "unit": "s^–1"}, {"measurement": "intrinsic oxydianion binding energy (ΔG^‡)", "setting": "[2]", "value": -18.8, "unit": "kJ/mol"}]}
